Columns and labels:
HDAC5 = molecular target: T1, HDAC5 (Homo sapiens, UniProt Q9UQL6); assay: In vitro HDAC enzyme inhibition assay, HDAC5; assay type: biochemical; conditions: for HDAC5/HDAC6 in vitro selectivity: ratio of IC50 for HDAC5 relative to that of HDAC6; for IC50: recombinant full-length HDAC5, substrate MAZ1675 40 μM; for selectivity toward HDAC6 compared to HDAC5 (in words): tested in vitro
T1 construct: Recombinant, full-length HDAC protein (BPS Biosciences) was incubated with fluorophore conjugated substrate; purchased BPS Biosciences
Experimental: (§1) In vitro Histone Deacetylase enzyme assays were performed using Class I (isoforms: HDAC1, HDAC2, HDAC3 and HDAC8), class IIa (isoforms: HDAC4, HDAC5, HDAC7 and HDAC9) and class IIb (isoform HDAC6).
(§2) HDAC activities were determined in vitro with an optimized homogenous assay performed in a 384-well plate. Recombinant, full-length HDAC protein (BPS Biosciences) was incubated with fluorophore conjugated substrate, MAZ1600 and MAZ1675, at Km=[S]. […] Reactions were performed in assay buffer (50 mM HEPES, 100 mM KCl, 0.001% Tween-20, 0.05% BSA, 200 μM tris(2-carboxyethyl)phosphine (TCEP), pH 7.4) and followed for fluorogenic release of 7-amino-4-methylcoumarin from substrate upon deacetylase and trypsin enzymatic activity. Fluorescence measurements were obtained every five minutes using a multilabel plate reader and plate-stacker (Envision; Perkin-Elmer). Each plate was analyzed by plate repeat, and the first derivative within the linear range was imported into analytical software (Spotfire DecisionSite and GraphPad Prism). Replicate experimental data from incubations with inhibitor were normalized to controls.

HDAC6 = molecular target: T2, HDAC6 (Homo sapiens, UniProt Q9UBN7); assay: In vitro HDAC enzyme inhibition assay, HDAC6; assay type: biochemical; conditions: recombinant full-length HDAC6, substrate MAZ1600 9 μM
T2 construct: Recombinant, full-length HDAC protein (BPS Biosciences) was incubated with fluorophore conjugated substrate; purchased BPS Biosciences
T2 sequence (Q9UBN7 1-1215): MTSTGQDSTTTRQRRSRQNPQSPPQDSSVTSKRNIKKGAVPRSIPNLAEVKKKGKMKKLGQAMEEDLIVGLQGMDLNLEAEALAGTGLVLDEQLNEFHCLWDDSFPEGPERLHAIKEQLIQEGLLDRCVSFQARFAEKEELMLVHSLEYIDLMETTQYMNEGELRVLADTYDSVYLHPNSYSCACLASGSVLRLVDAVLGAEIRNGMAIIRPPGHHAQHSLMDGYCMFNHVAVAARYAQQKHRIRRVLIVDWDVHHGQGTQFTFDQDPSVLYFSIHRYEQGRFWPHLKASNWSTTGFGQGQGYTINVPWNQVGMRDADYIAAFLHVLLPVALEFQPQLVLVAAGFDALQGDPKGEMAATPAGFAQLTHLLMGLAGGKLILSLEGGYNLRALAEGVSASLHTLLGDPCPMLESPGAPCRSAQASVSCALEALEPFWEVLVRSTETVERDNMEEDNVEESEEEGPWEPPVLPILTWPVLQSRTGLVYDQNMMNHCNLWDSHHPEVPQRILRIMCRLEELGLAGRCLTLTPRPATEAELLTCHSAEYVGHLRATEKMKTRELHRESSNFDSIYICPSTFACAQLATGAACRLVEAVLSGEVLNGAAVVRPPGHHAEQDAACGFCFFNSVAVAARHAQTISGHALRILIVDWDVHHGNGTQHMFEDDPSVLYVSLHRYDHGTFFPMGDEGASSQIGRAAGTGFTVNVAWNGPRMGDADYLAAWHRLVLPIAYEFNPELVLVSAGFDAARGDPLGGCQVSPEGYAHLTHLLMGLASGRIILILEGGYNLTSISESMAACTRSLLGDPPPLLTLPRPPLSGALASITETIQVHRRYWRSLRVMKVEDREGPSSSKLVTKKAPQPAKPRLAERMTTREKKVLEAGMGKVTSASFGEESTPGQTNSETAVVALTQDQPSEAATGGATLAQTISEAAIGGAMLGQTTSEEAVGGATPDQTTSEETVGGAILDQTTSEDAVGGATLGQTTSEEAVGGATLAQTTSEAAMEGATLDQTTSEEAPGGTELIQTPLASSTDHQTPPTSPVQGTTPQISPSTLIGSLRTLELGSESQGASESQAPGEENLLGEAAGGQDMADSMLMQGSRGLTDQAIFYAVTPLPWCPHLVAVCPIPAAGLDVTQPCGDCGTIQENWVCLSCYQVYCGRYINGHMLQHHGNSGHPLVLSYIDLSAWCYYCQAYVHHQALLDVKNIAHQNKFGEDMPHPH
Procedure, shortened: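 Deacetylase activity of full-length recombinant HDAC assessed via trypsin-coupled AMC release from substrate at Km concentration, pH 7.4 buffer with TCEP. Kinetic fluorescence slopes were normalized to controls.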

HDAC7 = molecular target: T3, HDAC7 (Homo sapiens, UniProt Q8WUI4); assay: In vitro HDAC enzyme inhibition assay, HDAC7; assay type: biochemical; conditions: for HDAC7/HDAC6 in vitro selectivity: ratio of IC50 for HDAC7 relative to that of HDAC6; for IC50: recombinant full-length HDAC7, substrate MAZ1675 22 μM
T3 construct: Recombinant, full-length HDAC protein (BPS Biosciences) was incubated with fluorophore conjugated substrate; purchased BPS Biosciences
T3 sequence (Q8WUI4 1-952): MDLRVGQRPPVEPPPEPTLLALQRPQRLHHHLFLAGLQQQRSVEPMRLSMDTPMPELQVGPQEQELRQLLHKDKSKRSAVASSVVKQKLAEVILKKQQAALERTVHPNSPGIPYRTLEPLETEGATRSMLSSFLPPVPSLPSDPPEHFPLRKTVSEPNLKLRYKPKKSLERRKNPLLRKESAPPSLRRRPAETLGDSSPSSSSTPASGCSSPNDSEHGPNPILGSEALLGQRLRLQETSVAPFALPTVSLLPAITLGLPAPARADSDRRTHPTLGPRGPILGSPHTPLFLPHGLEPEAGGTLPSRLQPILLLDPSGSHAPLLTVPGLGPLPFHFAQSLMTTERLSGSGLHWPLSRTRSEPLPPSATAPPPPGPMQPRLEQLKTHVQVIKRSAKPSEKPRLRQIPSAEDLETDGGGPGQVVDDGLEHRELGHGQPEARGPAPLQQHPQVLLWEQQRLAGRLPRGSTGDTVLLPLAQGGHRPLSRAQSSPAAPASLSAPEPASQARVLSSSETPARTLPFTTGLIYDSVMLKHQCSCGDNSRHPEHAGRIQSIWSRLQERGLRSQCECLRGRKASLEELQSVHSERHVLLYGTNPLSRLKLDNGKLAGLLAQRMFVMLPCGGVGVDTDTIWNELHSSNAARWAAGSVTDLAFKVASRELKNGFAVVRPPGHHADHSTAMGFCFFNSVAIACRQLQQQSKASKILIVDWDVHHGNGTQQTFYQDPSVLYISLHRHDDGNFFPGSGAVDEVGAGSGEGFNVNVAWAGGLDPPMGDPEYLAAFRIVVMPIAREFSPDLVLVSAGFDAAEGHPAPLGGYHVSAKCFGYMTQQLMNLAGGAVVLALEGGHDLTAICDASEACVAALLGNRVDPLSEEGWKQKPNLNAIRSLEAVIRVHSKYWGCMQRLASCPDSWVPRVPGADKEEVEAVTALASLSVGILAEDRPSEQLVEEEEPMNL
Experimental: as §1, §2

HDAC9 = molecular target: T4, HDAC9 (Homo sapiens, UniProt Q9UKV0); assay: In vitro HDAC enzyme inhibition assay, HDAC9; assay type: biochemical; conditions: for HDAC9/HDAC6 in vitro selectivity: ratio of IC50 for HDAC9 relative to that of HDAC6; for IC50: recombinant full-length HDAC9, substrate MAZ1675 26 μM; for selectivity toward HDAC6 compared to HDAC9 (in words): tested in vitro
T4 construct: Recombinant, full-length HDAC protein (BPS Biosciences) was incubated with fluorophore conjugated substrate; purchased BPS Biosciences
Experimental: as §1, §2

acetylated histones = assay: High-content image analysis of induction of acetylated histones in A549 cells; conditions: for EC50: Homo sapiens, A549, 8 h, read-out: EC50 for half-maximal induction of acetylated histones (AcHistone); for levels of acetylated histone, dose response (in words): A549 cells, FIG. 11

T1 sequence (Q9UQL6 whole entry): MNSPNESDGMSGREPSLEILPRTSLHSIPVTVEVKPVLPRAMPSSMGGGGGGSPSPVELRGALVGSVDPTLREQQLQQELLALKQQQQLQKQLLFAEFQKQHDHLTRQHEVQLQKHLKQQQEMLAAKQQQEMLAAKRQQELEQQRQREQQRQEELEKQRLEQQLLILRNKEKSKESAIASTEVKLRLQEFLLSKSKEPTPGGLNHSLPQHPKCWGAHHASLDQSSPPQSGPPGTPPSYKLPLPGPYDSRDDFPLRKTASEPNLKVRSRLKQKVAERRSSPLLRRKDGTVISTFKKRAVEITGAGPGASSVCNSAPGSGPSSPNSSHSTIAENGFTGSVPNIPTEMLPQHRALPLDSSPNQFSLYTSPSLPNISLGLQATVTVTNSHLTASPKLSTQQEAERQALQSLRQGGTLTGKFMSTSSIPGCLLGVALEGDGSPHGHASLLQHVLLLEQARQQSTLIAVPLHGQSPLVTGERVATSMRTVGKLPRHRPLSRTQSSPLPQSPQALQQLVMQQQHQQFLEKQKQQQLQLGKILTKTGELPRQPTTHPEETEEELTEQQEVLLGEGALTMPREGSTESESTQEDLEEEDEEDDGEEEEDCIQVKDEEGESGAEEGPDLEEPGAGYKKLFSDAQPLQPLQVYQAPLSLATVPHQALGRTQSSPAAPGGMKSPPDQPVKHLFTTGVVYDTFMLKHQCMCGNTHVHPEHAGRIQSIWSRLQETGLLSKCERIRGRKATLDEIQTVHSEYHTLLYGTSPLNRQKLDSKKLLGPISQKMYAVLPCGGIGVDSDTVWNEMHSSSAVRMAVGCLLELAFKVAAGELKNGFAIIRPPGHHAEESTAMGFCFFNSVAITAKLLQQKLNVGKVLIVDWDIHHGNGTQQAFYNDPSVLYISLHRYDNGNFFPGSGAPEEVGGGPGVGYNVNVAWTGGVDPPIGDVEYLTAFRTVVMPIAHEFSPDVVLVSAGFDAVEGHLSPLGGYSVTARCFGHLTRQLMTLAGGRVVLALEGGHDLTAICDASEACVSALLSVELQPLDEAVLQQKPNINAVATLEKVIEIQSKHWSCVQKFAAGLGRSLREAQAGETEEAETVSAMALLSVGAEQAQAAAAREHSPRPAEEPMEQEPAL
T4 sequence (Q9UKV0 whole entry): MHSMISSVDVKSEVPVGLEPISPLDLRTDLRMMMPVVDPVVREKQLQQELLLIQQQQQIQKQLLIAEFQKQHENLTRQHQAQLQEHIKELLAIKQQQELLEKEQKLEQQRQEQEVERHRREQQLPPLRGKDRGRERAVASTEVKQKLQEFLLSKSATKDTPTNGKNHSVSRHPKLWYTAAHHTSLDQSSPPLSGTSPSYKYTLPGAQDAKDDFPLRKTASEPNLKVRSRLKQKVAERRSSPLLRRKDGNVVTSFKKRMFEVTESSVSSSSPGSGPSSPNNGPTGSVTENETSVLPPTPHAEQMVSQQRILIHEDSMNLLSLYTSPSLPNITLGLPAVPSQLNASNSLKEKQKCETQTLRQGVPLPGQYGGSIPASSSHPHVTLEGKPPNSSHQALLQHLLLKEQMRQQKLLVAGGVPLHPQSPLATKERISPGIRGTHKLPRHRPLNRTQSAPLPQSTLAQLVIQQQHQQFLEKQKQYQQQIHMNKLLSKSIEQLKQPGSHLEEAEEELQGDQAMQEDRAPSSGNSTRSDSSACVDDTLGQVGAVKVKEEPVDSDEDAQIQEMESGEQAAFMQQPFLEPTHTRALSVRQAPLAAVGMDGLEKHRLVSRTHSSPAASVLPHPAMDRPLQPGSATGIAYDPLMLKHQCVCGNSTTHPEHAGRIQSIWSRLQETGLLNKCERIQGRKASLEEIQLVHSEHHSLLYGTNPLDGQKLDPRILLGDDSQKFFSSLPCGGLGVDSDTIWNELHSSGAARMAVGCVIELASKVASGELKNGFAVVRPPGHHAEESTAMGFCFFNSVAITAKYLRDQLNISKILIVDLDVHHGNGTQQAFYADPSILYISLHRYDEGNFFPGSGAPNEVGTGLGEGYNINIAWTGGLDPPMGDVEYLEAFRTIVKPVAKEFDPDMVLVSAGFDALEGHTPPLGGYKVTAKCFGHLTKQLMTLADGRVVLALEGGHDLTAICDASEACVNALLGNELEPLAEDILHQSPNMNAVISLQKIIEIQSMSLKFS

Row | HDAC5/HDAC6 in vitro selectivity (HDAC5) | IC50 (HDAC5) [nM] | IC50 (HDAC6) [nM] | HDAC7/HDAC6 in vitro selectivity (HDAC7) | IC50 (HDAC7) [nM] | HDAC9/HDAC6 in vitro selectivity (HDAC9) | IC50 (HDAC9) [nM] | EC50 (acetylated histones) [nM] | SMILES | selectivity toward HDAC6 compared to HDAC5 (in words) (HDAC5) | selectivity toward HDAC6 compared to HDAC9 (in words) (HDAC9) | levels of acetylated histone, dose response (in words) (acetylated histones)
1 | 59773 | 956 | 0.016 | 9286 | 148 | 67800 | 1080 | 7140 | O=C(NO)c1ccc(Cn2nnc3ccccc32)cc1 [C1, 4-((1H-benzo[d][1,2,3]triazol-1-yl)methyl)-N-hydroxybenzamide] | exceptionally high selectivity (Inhibitors with in vitro selectivity values for HDAC6 of at least 30,000 are considered to have exceptionally high selectivity toward HDAC6) | exceptionally high selectivity (Inhibitors with in vitro selectivity values for HDAC6 of at least 30,000 are considered to have exceptionally high selectivity toward HDAC6) | –
2 | 51438 | 1110 | 0.0216 | 17021 | 367 | 66950 | 1440 | 1480 | O=C(NO)c1ccc(Cn2c(=O)[nH]c3cc(F)ccc32)cc1 [B3, 4-((5-fluoro-2-oxo-2,3-dihydro-1H-benzo[d]imidazol-1-yl)methyl)N-hydroxybenzamide] | exceptionally high selectivity (Inhibitors with in vitro selectivity values for HDAC6 of at least 30,000 are considered to have exceptionally high selectivity toward HDAC6) | exceptionally high selectivity (Inhibitors with in vitro selectivity values for HDAC6 of at least 30,000 are considered to have exceptionally high selectivity toward HDAC6) | –
3 | 122813 | 762 | 0.00621 | 38222 | 237 | 114680 | 712 | ~629 | O=C(NO)c1ccc(Cn2c(=O)[nH]c3cc(C(F)(F)F)ccc32)cc1 [B6, N-hydroxy-4-((2-oxo-5-(trifluoromethyl)-2,3-dihydro-1H-benzo[d]imidazol-1-yl)methyl)benzamide] | exceptionally high selectivity (Inhibitors with in vitro selectivity values for HDAC6 of at least 30,000 are considered to have exceptionally high selectivity toward HDAC6) | exceptionally high selectivity (Inhibitors with in vitro selectivity values for HDAC6 of at least 30,000 are considered to have exceptionally high selectivity toward HDAC6) | absence of the dose-dependent response
4 | 39409 | 808 | 0.0205 | 9297 | 190 | 39480 | 809 | 846 | O=C(NO)c1ccc(Cn2c(=O)[nH]c3cc(Br)ccc32)cc1 [B5, 4-((5-bromo-2-oxo-2,3-dihydro-1H-benzo[d]imidazol-1-yl)methyl)-N-hydroxybenzamide] | exceptionally high selectivity (Inhibitors with in vitro selectivity values for HDAC6 of at least 30,000 are considered to have exceptionally high selectivity toward HDAC6) | exceptionally high selectivity (Inhibitors with in vitro selectivity values for HDAC6 of at least 30,000 are considered to have exceptionally high selectivity toward HDAC6) | –
5 | 486 | 279 | 0.574 | 484 | 278 | 2127 | 1220 | 592 | O=C(NO)c1ccc(Cn2c(C(F)(F)F)nc3cc(F)ccc32)cc1 [A3, 4-((5-fluoro-2-(trifluoromethyl)-1H-benzo[d]imidazol-1-yl)methyl)-N-hydroxybenzamide] | – | – | –
6 | 246 | 285 | 1.16 | 323 | 374 | 943 | 1090 | 14900 | O=C(NO)c1ccc(Cn2c(C(F)(F)F)nc3cc(Cl)ccc32)cc1 [A4, 4-((5-chloro-2-(trifluoromethyl)-1H-benzo[d]imidazol-1-yl)methyl)-N-hydroxybenzamide] | – | – | absence of the dose-dependent response
